Values quoted from earlier work in patent US20030212034A1, “Method of treatment of obesity and paralyzed muscle and ergogenic aids” (priority 2002, published 2003).

System: AMPK
Settings: analogues of 5′-AMP; Hardie & Carling 1997; cited from earlier work

For Nc1ncnc2c([C@@H]3O[C@H](COP(=O)(O)O)[C@@H](O)[C@H]3O)[nH]nc12 [Formycin A 5′-monophosphate], which “potency of AMPK activation in vitro” value is on record?
The value was “less potently”.

For NC(=O)c1ncn([C@@H]2O[C@H](COP(=O)(O)O)[C@@H](O)[C@H]2O)c1N [ZMP], which “potency of AMPK activation in vitro” value is on record?
Its value is “less potently”.

Which “potency of AMPK activation in vitro” value does the source give for Nc1ncnc2c1ncn2[C@@H]1O[C@H](COP(N)(=O)O)[C@@H](O)[C@H]1O [adenosine 5′-phosphoramidate] here?
The value was “more potently”.

Which “potency of AMPK activation in vitro” value does the source give for Nc1ncnc2c1ncn2[C@@H]1O[C@H](COP(O)(O)=S)[C@@H](O)[C@H]1O [adenosine-5′-thiomonophosphate] here?
The value was “more potently”.
